Experimental data published in ChEMBL document CHEMBL1201862, “PubChem BioAssay data set” (2004).
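Cultured in 96-well plates, cells were exposed to test compound for 48 hours across five concentrations. GI50: concentration for 50% inhibition of growth.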 Activity calls are given as the source filed them. No stated cut-off is given here; in the data, active = GI50 up to about 1.1 µM and inactive = higher.

Legend:
Assay in all cases: growth of human tumour cells (NCI), 48 h
MOLT-4 = tested on: MOLT-4
HL-60 = tested on: HL-60
CAKI-1 = tested on: CAKI-1
OVCAR-3 = tested on: OVCAR-3
K562 = tested on: K562
NCI-H460 = tested on: NCI-H460
SK-OV-3 = tested on: SK-OV-3
KM12 = tested on: KM12
HT-29 = tested on: HT-29
SR = tested on: SR
SN12C = tested on: SN12C
SNB-19 = tested on: SNB-19
NCI-H226 = tested on: NCI-H226
SF-539 = tested on: SF-539
786-0 = tested on: 786-0
NCI-H522 = tested on: NCI-H522
U-251 = tested on: U-251
HOP-62 = tested on: HOP-62
HCT-116 = tested on: HCT-116
UO-31 = tested on: UO-31

Compound	GI50 (MOLT-4)	GI50 (HL-60)	GI50 (CAKI-1)	GI50 (OVCAR-3)	GI50 (K562)	GI50 (NCI-H460)	GI50 (SK-OV-3)	GI50 (KM12)	GI50 (HT-29)	GI50 (SR)	GI50 (SN12C)	GI50 (SNB-19)	GI50 (NCI-H226)	GI50 (SF-539)	GI50 (786-0)	GI50 (NCI-H522)	GI50 (U-251)	GI50 (HOP-62)	GI50 (HCT-116)	GI50 (UO-31)
CC(=O)c1cc(I)c(O)c2ncccc12	2.42 µM (inactive)	2.03 µM (inactive)	3.08 µM (inactive)	3.21 µM (inactive)	7.55 µM (inactive)	4.06 µM (inactive)	4.27 µM (inactive)	> 10 µM (inactive)	4.42 µM (inactive)	2.91 µM (inactive)	3.69 µM (inactive)	5.47 µM (inactive)	2.33 µM (inactive)	3.05 µM (inactive)	3.03 µM (inactive)	3.6 µM (inactive)	3.97 µM (inactive)	4.36 µM (inactive)	2.94 µM (inactive)	
NC(=O)CC(/N=C1\C(=O)OC(C(O)CO)\C1=N/C(CC(N)=O)C(=O)O)C(=O)O (configuration not stated)	> 100 µM (inactive)	> 100 µM (inactive)	> 100 µM (inactive)		> 100 µM (inactive)	> 100 µM (inactive)	> 100 µM (inactive)	> 100 µM (inactive)	> 100 µM (inactive)	> 100 µM (inactive)	> 100 µM (inactive)	> 100 µM (inactive)	> 100 µM (inactive)	> 100 µM (inactive)	> 100 µM (inactive)	> 100 µM (inactive)	> 100 µM (inactive)	> 100 µM (inactive)	> 100 µM (inactive)	> 100 µM (inactive)
Cc1ccc2c(c1)C1(OC(=O)c3ccccc31)c1ccc(F)cc1O2 (configuration not stated)	20.3 µM (inactive)	21.7 µM (inactive)	30 µM (inactive)	55.2 µM (inactive)	35 µM (inactive)		> 100 µM (inactive)	51.3 µM (inactive)	39.3 µM (inactive)	25.5 µM (inactive)	> 100 µM (inactive)		18.7 µM (inactive)		77.6 µM (inactive)	23.9 µM (inactive)		> 100 µM (inactive)	32.7 µM (inactive)	20.3 µM (inactive)
Cc1ccc(C(=O)N/N=C(\N=N\c2cccc([N+](=O)[O-])c2)c2ccc(N(CCC#N)CCC#N)cc2C)cc1	24 µM (inactive)	12.9 µM (inactive)	38.9 µM (inactive)	2.32 µM (inactive)	22.8 µM (inactive)	29 µM (inactive)	36.8 µM (inactive)	19.7 µM (inactive)	29.2 µM (inactive)	21.6 µM (inactive)	46.6 µM (inactive)	53.7 µM (inactive)		4.58 µM (inactive)	34.4 µM (inactive)	20.4 µM (inactive)	36.1 µM (inactive)	25.4 µM (inactive)	28.4 µM (inactive)	39.5 µM (inactive)
C=CC(Br)(CBr)CCC(Cl)C(C)C (configuration not stated)	1.06 µM (active)	0.561 µM (active)	2.62 µM (inactive)	2.02 µM (inactive)	1.33 µM (inactive)	1.88 µM (inactive)	4.25 µM (inactive)	1.47 µM (inactive)	1.66 µM (inactive)	0.481 µM (active)	1.73 µM (inactive)	2.2 µM (inactive)	7.28 µM (inactive)	2.31 µM (inactive)		1.42 µM (inactive)	1.66 µM (inactive)	1.8 µM (inactive)	3.12 µM (inactive)	1.64 µM (inactive)
CC1CC2=Nc3ccccc3NC(c3ccccc3)C2=C(O)O1 (configuration not stated)	> 100 µM (inactive)	> 100 µM (inactive)		> 100 µM (inactive)	> 100 µM (inactive)	> 100 µM (inactive)	> 100 µM (inactive)	> 100 µM (inactive)	> 100 µM (inactive)	63.1 µM (inactive)	> 100 µM (inactive)	> 100 µM (inactive)	> 100 µM (inactive)	> 100 µM (inactive)	> 100 µM (inactive)	47.1 µM (inactive)	> 100 µM (inactive)	> 100 µM (inactive)	> 100 µM (inactive)	> 100 µM (inactive)
O=C(Cc1csc2[n+]1C(=O)/C(=C/c1ccc(Cl)cc1)S2)Nc1ccccc1		20.2 µM (inactive)	28.1 µM (inactive)	12.8 µM (inactive)	21.7 µM (inactive)	18.7 µM (inactive)	19.4 µM (inactive)	22.5 µM (inactive)	24.2 µM (inactive)	24.3 µM (inactive)	32.1 µM (inactive)	34.9 µM (inactive)	15.6 µM (inactive)	27.8 µM (inactive)	25.1 µM (inactive)	15.3 µM (inactive)	16.2 µM (inactive)	2.01 µM (inactive)	16.8 µM (inactive)	21.9 µM (inactive)
CC1CCC2(CC1)NC1=C(CC(C)CC1)C1=C2CC(C)CC1 (configuration not stated)	7.14 µM (inactive)	14.4 µM (inactive)	22 µM (inactive)	17.6 µM (inactive)	17.2 µM (inactive)	23.8 µM (inactive)	38.8 µM (inactive)	18.1 µM (inactive)	16.7 µM (inactive)	21.8 µM (inactive)		23.5 µM (inactive)	16.7 µM (inactive)	22.1 µM (inactive)	19.5 µM (inactive)	19.3 µM (inactive)	18.4 µM (inactive)		14.8 µM (inactive)	20.3 µM (inactive)
CCCc1c(C(=O)OCC)[nH]c(-c2ccc(-c3[nH]c(C(=O)OCC)c(CCC)c3C(=O)OCC)o2)c1C(=O)OCC	> 100 µM (inactive)	> 100 µM (inactive)	> 100 µM (inactive)	> 100 µM (inactive)	> 100 µM (inactive)	> 100 µM (inactive)	> 100 µM (inactive)	> 100 µM (inactive)	> 100 µM (inactive)	> 100 µM (inactive)	> 100 µM (inactive)	> 100 µM (inactive)	> 100 µM (inactive)	> 100 µM (inactive)	> 100 µM (inactive)	> 100 µM (inactive)	> 100 µM (inactive)		> 100 µM (inactive)	> 100 µM (inactive)
CN(C)c1nc2sc3c(c2c(=O)o1)CCCC3	52.2 µM (inactive)	27 µM (inactive)	35.3 µM (inactive)		32.4 µM (inactive)	44.5 µM (inactive)	31.6 µM (inactive)	21.6 µM (inactive)	21 µM (inactive)	65.2 µM (inactive)	36.9 µM (inactive)	25.6 µM (inactive)	15.3 µM (inactive)	43.3 µM (inactive)	45.4 µM (inactive)	25.4 µM (inactive)	32.7 µM (inactive)	25.6 µM (inactive)	44.9 µM (inactive)	7.46 µM (inactive)
CN1COCc2c1ccc1cc3ccc4c(c3nc21)COCN4S(C)(=O)=O	> 100 µM (inactive)		> 100 µM (inactive)	> 100 µM (inactive)	> 100 µM (inactive)	> 100 µM (inactive)	> 100 µM (inactive)	> 100 µM (inactive)	> 100 µM (inactive)	3.73 µM (inactive)	> 100 µM (inactive)	> 100 µM (inactive)	> 100 µM (inactive)		73.6 µM (inactive)	> 100 µM (inactive)	> 100 µM (inactive)	> 100 µM (inactive)	> 100 µM (inactive)	> 100 µM (inactive)
Cc1ccc(S(=O)(=O)N/N=C2/C3CCC(C3)C2c2ccccc2)cc1 (configuration not stated)	> 100 µM (inactive)	> 100 µM (inactive)	> 100 µM (inactive)	> 100 µM (inactive)	> 100 µM (inactive)	> 100 µM (inactive)	> 100 µM (inactive)	> 100 µM (inactive)	> 100 µM (inactive)	> 100 µM (inactive)	> 100 µM (inactive)	> 100 µM (inactive)	> 100 µM (inactive)		> 100 µM (inactive)	> 100 µM (inactive)	> 100 µM (inactive)	> 100 µM (inactive)	> 100 µM (inactive)	> 100 µM (inactive)
CC(C)=CCC/C(C)=C/CC/C(C)=C/CC/C(=C/CC/C(C)=C\CC/C(C)=C/CC/C(C)=C/CC/C(C)=C/Cc1cc(O)ccc1O)CO		3.15 µM (inactive)	1.71 µM (inactive)	4.42 µM (inactive)	17.7 µM (inactive)	9.57 µM (inactive)	10.9 µM (inactive)	1.67 µM (inactive)	4.52 µM (inactive)	3.26 µM (inactive)	17.6 µM (inactive)	7.1 µM (inactive)	2.29 µM (inactive)	0.824 µM (active)	2.98 µM (inactive)	1.57 µM (inactive)	3.08 µM (inactive)	11.3 µM (inactive)	2.84 µM (inactive)	7.98 µM (inactive)
CCC(=O)ONC(=O)Cn1ccc([N+](=O)[O-])n1	> 100 µM (inactive)	> 100 µM (inactive)	> 100 µM (inactive)	> 100 µM (inactive)	> 100 µM (inactive)		> 100 µM (inactive)	> 100 µM (inactive)	> 100 µM (inactive)	> 100 µM (inactive)	> 100 µM (inactive)	> 100 µM (inactive)	> 100 µM (inactive)	> 100 µM (inactive)	> 100 µM (inactive)	> 100 µM (inactive)		> 100 µM (inactive)	> 100 µM (inactive)	> 100 µM (inactive)
Cc1oc(N)c(S(=O)(=O)c2cc3ccccc3[n+]([O-])c2N)c1C	> 100 µM (inactive)		> 100 µM (inactive)	> 100 µM (inactive)		> 100 µM (inactive)	> 100 µM (inactive)	> 100 µM (inactive)	> 100 µM (inactive)	< 0.01 µM (active)	> 100 µM (inactive)	> 100 µM (inactive)	> 100 µM (inactive)	> 100 µM (inactive)	> 100 µM (inactive)	> 100 µM (inactive)	> 100 µM (inactive)	> 100 µM (inactive)		> 100 µM (inactive)
